Test results published in US4826984A, “Heteroarotinoid compounds as anticancer agents” (The Board of Regents for the Oklahoma Agricultural and …, priority 1987, dated 1989).
Where “and” joins values, the source holds several entries; their conditions need not be identical. Equal entries are not always repeated. Entries after “also recorded” stand apart in the source; their conditions may differ. Where two headings read alike, the source gives them in different places. Blank lines part the entries; values can stand above or below the molecule they belong to.

Legend:
HL-60 cells = assay: induction of differentiation of HL-60 cells (NBT reduction); format: cell-based, human; settings: for EC50: Homo sapiens; for cells induced to differentiate: 3 μM
Experimental: In order to evaluate the efficacy of the heteroarotinoids to induce HL-60 cell differentiation along the granulocytic maturation pathway, HL-60 cells were grown in a serum-free medium consisting of HRPMI 1640 supplemented with […] 4-(2-hydroxyethyl)-1-piperazineethane sulfonic acid, 5 μg of insulin/mL, and 5 μg of transferrin/mL. These mature cells, unlike the uninduced HL-60, produced superoxide anion when simulated with an appropriate agent, such as TPA. The ability of the individual cells to produce superoxide can be measured by incubating cells with the water-soluble yellow dye, nitroblue tetrazolium (NBT). NBT is reduced to a water-insoluble blue-black formazan by superoxide. This formazan precipitate is associated with those cells that produce superoxide. Thus, the percentage of cells in a population that produce superoxide (NBT-positive cells) can be enumerated under a light microscope.
After incubation for 4 days at 37° C. in a humidified atmosphere of 5% CO2 and air, the capacity of the cells to reduce NBT was determined. Viable cells (10^6) were harvested by centrifugation and suspended in 0.5 mL of RPMI 1640 containing 20% fetal bovine serum. This cell suspension was mixed with an equal volume of phosphate buffered saline containing 1 mg of NBT/mL and […]. The reaction mixture was incubated at 37° C. for 25 minutes, and the reaction was terminated by cooling in an ice water bath. Cytospin slides were prepared from a portion of this reaction mixture and stained with Wright-Giemsa. A minimum of 200 cells were counted under light microscopy to determine the percentage of cells with cell-associated formazan.

[1] = system: ornithine decarboxylase (ODC); assay: suppression of TPA induced ornithine decarboxylase (ODC) in mouse skin; format: in vivo; settings: for activity in inhibiting ODC induction by TPA (in words): mouse, in vivo
Experimental: In the ODC assay, either 13-cis-retinoic acid or trans-retinoic acid was employed. The following Table summarizes the result of the ODC assays.
In the screening tests of the Table, the selected retinoids in 0.2 ml of acetone were applied 1 hour before the application of 10 nmole of TPA to the shaved backs of mice; the mice where then sacrificed for ODC assay 5 hours after TPA treatment. Epidermus was separated, homogenized, and centrifuged at 30,000×g. Soluble epidermal ODC activity was assayed. The retinoids were evaluated in three independent experiments (3 groups of mice with 3 mice per group) and the results from the experiments were normalized (% inhibition) for comparison. […] Which standard is used appears to be relatively unimportant for determining activity in the assay, but the data presented in the Table identifies the standard for sake of clarity and accuracy of presentation. Thus, the presence of the heteroatom in these arotinoids has not eliminated biological activity. […] Consequently, the nature of the terminus group is also important.

[2] = system: tracheal organ cultures obtained from vitamin A deficient hamsters; assay: tissue or blood; format: cell-based, hamster; settings: for EC50: Mesocricetus auratus, dose for reversal of keratinization in epithelium of 50% of retinoid-deficient hamster tracheas in organ culture, trans-retinoic acid run with each compound, read-out: ED50 (the source's name); for activity relative to all trans-retinoic acid: log units less than the standard; for activity (in words): reversal of keratinization
Text: An evaluation of the anticancer properties of the heteroarotinoids was made via the standard hamster tracheal organ culture bioassay (see D. L. Newton, W. R. Henderson, and M. B. Sporn in Structure-Activity Relationships of Retinoids, National Cancer Institute, Revised Edition, Feb. 26, 1980; and D. L. Newton, W. R. Henderson, and M. B. Sporn, Cancer Research, 40, 3413 [1980]). The assay involves the ability of a test compound in vitro to reverse keratinization in tracheal organ cultures obtained from vitamin A deficient hamsters. The relationship of vitamin A deficient epithelial tissues and precancerous lesions is well known (see C. E. Orfanos, Retinoids-Advances in Basic Research and Therapy, Springer-Verlag, New York, 1981). For example, the addition of retinoids can reverse the anaplastic epithelial lesions induced in prostate glands by chemical carcinogens (see D. P. Chopra and L. J. Wilkoff, Proc. Am Assoc. Cancer Research, 16, 35 (1975); and I. Lasnitzki, British Journal of Cancer, 9, 434 [1955]). The basic procedure for the bioassay involving the vitamin A deficient hamster tracheal organ culture is presented below with the results obtained for some of the compositions.
The harvested tracheas were cultured in a serum-free medium and were gassed with 50% O2, 45% N2, and 5% CO2. The serum-free culture consists of CMRL Medium 1066 with crystalline bovine insulin (1.0 μg/mL), hydrocortisone hemisuccinate (0.1 μg/mL), glutamine (2 mM), pencillin (100 inits/mL), and streptomycin (100 μg/mL). The cultures were incubated for 3 days at 35°-36° C. After incubation in the retinoid-free medium, some of the tracheas were harvested. Most of the specimens had significant squamous metaplasia. The remaining cultures were divided into 3 groups. The first group was treated with the experimental heteroarotinoid in spectrograde dimethyl sulfoxide (DMSO) at concentrations of 10^-8 M, 10^-9 M, and 10^-10 M (final concentration of DMSO in culture medium was 0.1%). […] A final culture was prepared with only DMSO present.
The culture medium was changed three times per week for 10 days. At the end of that time, all tracheas were harvested and fixed in a 4% (or sometimes 10%) formaldehyde-1% glutaraldehyde solution. The material was then embedded in paraffin and cross-sections of the tracheas were examined under a microscope for the presence of keratin or keratohyaline granules. A synthetic retinoid was judged as having good anticancer activity if neither keratin nor keratohyaline granules were present or if only keratohyaline granules were […]. […] Sloughing of the cells in the culture studies was common with the toxic all trans-retinotic acid but was not observed with the heteroarotinoids in this work.
^a ED50 (M) is the dose for reversal of keratinization in
epithelium of 50% of retinoiddeficient hamster tracheas in organ culture.

[3] = single large doses; cited from earlier work
[4] = system: tracheal organ cultures obtained from vitamin A deficient hamsters; settings: value stated for the standard in the method; read-out: ED50 (the source's name); cited from earlier work
[5] = HL-60, 96 h, 4 days at 37° C., read-out: ED50 (half-maximal response)
[6] = 34 nmol retinoid + TPA, third experiment (standard trans-retinoic acid)
[7] = trans-retinoic acid as a standard
[8] = 17 nmol retinoid + TPA, first experiment
[9] = 17 nmol retinoid + TPA, second experiment
[10] = 13-cis-retinoic acid as the standard
[11] = 34 nmol retinoid + TPA, second experiment (standard 13-cis-retinoic acid)

Structure (SMILES): COC(=O)c1ccc(/C=C(\C)c2ccc3c(c2)C(C)(C)CO3)cc1 [compound 24, Methyl (E)-4-[2-(2,3-Dihydro-3,3-dimethyl-5-benzofuranyl)-1-propenyl]benzoate]
- cells induced to differentiate (HL-60 cells): 3 to 5%
- EC50 (HL-60 cells; [5]): > 3000 nM
- % of Inhibition as Compared to Control [1, 6]: 72%
- ODC Activity [1, 6]: 1.5 ± 0.4 nmol CO2 /60 min/mg protein
- activity in inhibiting ODC induction by TPA (in words) [1]: strongest activity; also recorded: strong activity as compared to the control
- relative activities in suppressing TPA induction of ODC [1, 7]: trans-retinoic acid >24>35>36

Structure (SMILES): COC(=O)c1ccc(/C=C(/C)c2ccc3c(c2)C(C)(C)CO3)cc1 [compound 25]
- cells induced to differentiate (HL-60 cells): 3 to 5%

Structure (SMILES): CC1=C(/C=C/C(C)=C/C=C/C(C)=C\C(=O)O)C(C)(C)CCC1 [13-cis-retinoic acid, reference compound]
- % of Inhibition as Compared to Control [1, 8]: 89%
- ODC Activity [1, 8]: 0.1 ± 0.01 nmol CO2 /30 min/mg protein
- % of Inhibition as Compared to Control [1, 9]: 92%
- ODC Activity [1, 9]: 0.14 ± 0.04 nmol CO2 /60 min/mg protein
- relative activities in suppressing TPA induction of ODC [1, 10]: 13-cis-retinoic acid 31>34

Structure (SMILES): C/C(=C\c1ccc(C(=O)O)cc1)c1ccc2c(c1)C(C)(C)CCO2 [acid derived from 34]
- cells induced to differentiate (HL-60 cells): approximately 15%
- EC50 (HL-60 cells; [5]): > 3000 nM
- EC50 (HL-60 cells; HL-60, restated in discussion, read-out: ED50 (the source's name)): < 3000 nM

Structure (SMILES): CC1=C(/C=C/C(C)=C/C=C/C(C)=C/C(=O)O)C(C)(C)CCC1 [trans-retinoic acid, all trans-retinoic acid, reference compound]
- Sloughing of the cells in the culture studies [2]: common
- % Active ([2]; 10^-11 M): 50.0% and 41.7% and 53.8%
- % Active ([2]; 10^-12 M): 16.7% and 33.3% and 23.1%
- % Active ([2]; concentration printed 11^-11 M): 50.0%
- % Active ([2]; concentration printed 12^-12 M): 23.1%
- acute toxicity [3]: acutely toxic in single large doses
- EC50 [4]: 0.01 nM
- % of Inhibition as Compared to Control [1, 6]: 81%
- ODC Activity [1, 6]: 1.0 ± 0.1 nmol CO2 /60 min/mg protein
- relative activities in suppressing TPA induction of ODC [1, 7]: trans-retinoic acid >24>35>36

Structure (SMILES): C/C(=C\c1ccc(C(=O)O)cc1)c1ccc2c(c1)C(C)(C)CCO2 [(X = O, R = H), (E)-4-[2-(3,4-Dihydro-4,4-dimethyl-2H-1-benzopyran-6-yl)-1-propenyl]benzoic Acid]
- % Active ([2]; 10^-8 M): 100%
- % Active ([2]; 10^-9 M): 100%
- % Active ([2]; 10^-10 M): 57.1%
- % Active ([2]; 10^-11 M): 11.14%
- EC50 [2]: 0.2 nM
- activity relative to all trans-retinoic acid [2]: only one log unit less than the standard all trans-retinoic acid
- activity (in words) [2]: good activity

Structure (SMILES): CCOC(=O)c1ccc(/C=C(\C)c2ccc3c(c2)C(C)(C)CCO3)cc1 [(X = O, R = C2 H5), Ethyl (E)-4-[2-(3,4-Dihydro-4,4-dimethyl-2H-1-benzopyran-6-yl)-1-propenyl]benzoate]
- % Active ([2]; 10^-9 M): 100%
- % Active ([2]; 10^-10 M): 50.0%
- % Active ([2]; 10^-11 M): 28.2%
- EC50 [2]: 0.1 nM
- activity relative to all trans-retinoic acid [2]: only one log unit less than the standard all trans-retinoic acid
- activity (in words) [2]: good activity

Structure (SMILES): C/C(=C\c1ccc(C#N)cc1)c1ccc2c(c1)C(C)(C)CCO2 [compound 34]
- ODC Activity [1, 11]: 1.77 ± 0.32 nmol CO2 /60 min/mg protein
- relative activities in suppressing TPA induction of ODC [1, 10]: 13-cis-retinoic acid 31>34

Further lines, with some results ahead:

- EC50 (HL-60 cells; [5]): > 3000 nM
- activity in inhibiting ODC induction by TPA (in words) [1]: less active
- relative activities in suppressing TPA induction of ODC [1, 7]: trans-retinoic acid >24>35>36
Structure (SMILES): C/C(=C\c1ccc(CO)cc1)c1ccc2c(c1)C(C)(C)CCO2 [compound 35, (E)-4-[2-Methyl-2-(4,4-dimethyl-6-chromanyl)]benzyl Alcohol]
- % of Inhibition as Compared to Control [1, 6]: 68%
- ODC Activity [1, 6]: 1.7 ± 0.1 nmol CO2 /60 min/mg protein

- EC50 [2]: 0.06 nM
Structure (SMILES): CCOC(=O)c1ccc(/C=C(\C)c2ccc3c(c2)C(C)(C)CCS3)cc1 [1 (X = S, R = C2 H5), Ethyl (E)-4-[2-(3,4-dihydro-4,4-dimethyl-2H-1-benzothiopyran-6-yl)-1-propenyl]benzoate]
- % Active ([2]; 10^-9 M): 100%
- % Active ([2]; 10^-10 M): 53.8%
- % Active ([2]; 10^-11 M): 28.6%
- % Active ([2]; 10^-12 M): 33.7%
- activity relative to all trans-retinoic acid [2]: approximately one-half log unit less than the all trans-retinoic acid
- activity (in words) [2]: very good activity

- EC50 [2]: 0.6 nM
Structure (SMILES): CCOC(=O)c1ccc(/C=C(\C)c2ccc3c(c2)C(C)(C)CC[S+]3[O-])cc1 (centres unmarked) [(X = S)--O, R = C2 H5), Ethyl (E)-4-[2-(3,4-Dihydro-4,4-dimethyl-2H-1-benzothiopyran-1-oxo-6-yl)-1-propenyl]benzoate]
- % Active ([2]; 10^-8 M): 71.4%
- % Active ([2]; 10^-9 M): 71.4%
- % Active ([2]; 10^-10 M): 18.6%
- activity (in words) [2]: less active but nevertheless displayed activity within the range of the standard

- EC50 (HL-60 cells; [5]): > 3000 nM
Structure (SMILES): C/C(=C\c1ccc(C(=O)O)cc1)c1ccc2c(c1)C(C)(C)CO2 [compound 26, (E)-4-[2-(2,3-Dihydro-3,3-dimethyl-5-benzofuranyl)-1-propenyl]benzoic acid]

- activity in inhibiting ODC induction by TPA (in words) [1]: less active
- relative activities in suppressing TPA induction of ODC [1, 7]: trans-retinoic acid >24>35>36
Structure (SMILES): C/C(=C\c1ccc(C=O)cc1)c1ccc2c(c1)C(C)(C)CCO2 [compound 36]
- % of Inhibition as Compared to Control [1, 6]: 34%
- ODC Activity [1, 6]: 3.5 ± 0.2 nmol CO2 /60 min/mg protein

- EC50 (HL-60 cells; [5]): > 3000 nM
- relative activities in suppressing TPA induction of ODC [1, 10]: 13-cis-retinoic acid 31>34
- activity in inhibiting ODC induction by TPA (in words) [1]: less active
Structure (SMILES): COC(=O)c1ccc(/C=C(\C)c2ccc3c(c2)C(C)(C)CCO3)cc1 [compound 31, Methyl (E)-4-[2-(3,4-Dihydro-4,4-dimethyl-2-H-1-benzopyran-6-yl)-1-propenyl]benzoate]
- cells induced to differentiate (HL-60 cells): approximately 15%
- % of Inhibition as Compared to Control [1, 11]: 43%
- ODC Activity [1, 11]: 0.95 ± 0.06 nmol CO2 /60 min/mg protein
